Publication PMC10746280, “Bacterial efflux pump modulators prevent bacterial growth in macrophages and under broth conditions that mimic the host environment” (mBio, 2023)

Key:
[1] = tested on: S. Typhimurium SL1344 (sifB::gfp) in RAW 264.7 macrophages; assay: SAFIRE macrophage assay: intracellular bacterial load (GFP signal within macrophages); type: cell-based, Salmonella enterica serotype Typhimurium; conditions: for 5 uM Avg Antibacterial Score / 25 uM Avg Antibacterial Score: 'Toxic' given instead of a score; for IC50: Salmonella enterica, TYPHIMURIUM, RAW264.7, read-out: SAFIRE IC50
Outline: (§1)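 RAW 264.7 macrophages infected with S. Typhimurium SL1344 sifB::gfp (MOI ~30), gentamicin 40 µg/mL, then compound from 2 h to 18 h post-infection. Confocal imaging with MitoTracker and DAPI; toxicity as adherent MitoTracker-positive macrophage count, bacterial load as GFP+ macrophage area.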

[2] = tested on: RAW 264.7 macrophages; assay: SAFIRE macrophage assay: host toxicity (adherent macrophage count, morphology); type: cell-based; conditions: for toxicity to infected macrophages in SAFIRE: 16 h after treatment
Outline: as §1

Row | SMILES | 5 uM Avg Antibacterial Score [1] | 25 uM Avg Antibacterial Score [1] | 5 uM Avg Cell # Score [2] | 25 uM Avg Cell # Score [2] | IC50 [1] [nM] | toxicity to infected macrophages in SAFIRE [2]
1 | N#Cc1ccc(OCC(O)CN2CCC(N)C2)cc1 (centres unmarked) [CU154] | 112 | 111 | 99 | 123 |  | 
2 | OC(CNCc1csc(Cl)c1)COc1ccc(Cl)c(Cl)c1 (centres unmarked) [CU155] | 107 | Toxic | 95 | 78 |  | 
3 | OC(COc1ccc(Cl)c(Cl)c1)CN1CCn2cnnc2C1 (centres unmarked) [CU156] | 110 | 107 | 97 | 124 |  | 
4 | OC(COc1ccc(Cl)c(Cl)c1)CN1CCn2c([3F])nnc2C1 (centres unmarked) [CU157] | 115 | 109 | 109 | 106 |  | 
5 | OC(COc1ccc(Cl)c(Cl)c1)CN1CCC(Oc2ncccn2)CC1 (centres unmarked) [CU158] | 110 | 61 | 106 | 103 |  | 
6 | OC(CNC1Cc2ccccc2C1)COc1ccc(Cl)c(Cl)c1 (centres unmarked) [CU159] | 102 | Toxic | 117 | 97 |  | 
7 | NC1CCN(C[C@H](O)COc2ccc(Cl)c(Cl)c2)C1 (some centres unmarked) [CU160] | 51 | 35 | 137 | 129 | 2.6 | 
8 | NC1CCN(C[C@@H](O)COc2ccc(Cl)c(Cl)c2)C1 (some centres unmarked) [CU161] | 55 | 33 | 138 | 113 | 81.4 | non-toxic
9 | CNC1CCN(C[C@H](O)COc2ccc(Cl)c(Cl)c2)C1 (some centres unmarked) [CU162] | 68 | 46 | 124 | 126 |  | 
10 | CNC1CCN(C[C@@H](O)COc2ccc(Cl)c(Cl)c2)C1 (some centres unmarked) [CU163] | 65 | 47 | 101 | 111 |  | 
11 | OC1CCN(CC(O)COc2ccc(Cl)c(Cl)c2)CC1 (centres unmarked) [CU164] | 106 | 82 | 98 | 126 |  | 
12 | NC1CCN(CC(O)COc2ccc(Cl)cc2)C1 (centres unmarked) [CU165] | 63 | 32 | 105 | 109 |  | 
13 | NC1CCN(CC(O)COc2ccc(Cl)cc2Cl)C1 (centres unmarked) [CU166] | 44 | 19 | 105 | 108 |  | 
14 | NC1CCN(CC(O)COc2ccc(F)cc2F)C1 (centres unmarked) [CU167] | 75 | 58 | 109 | 113 |  | 
15 | CCOC(=O)c1cccc(OCC(O)CN2CCC(N)C2)c1 (centres unmarked) [CU168] | 73 | 55 | 101 | 111 |  | 
16 | OC(COc1ccc(F)c(F)c1)CN1CCC(Nc2nccc(C(F)(F)F)n2)CC1 (centres unmarked) [CU169] | 84 | 6 | 106 | 91 |  | 
17 | OC(COc1ccc(F)c(F)c1)CN1CCC(Nc2ncccn2)CC1 (centres unmarked) [CU170] | 109 | 107 | 100 | 107 |  | 
18 | NC1CCN(CC(O)COc2ccc(F)c(F)c2)CC1 (centres unmarked) [CU171] | 61 | 45 | 108 | 96 |  | 
19 | NC1CCN(CC(O)COc2ccc(F)c(F)c2)C1 (centres unmarked) [CU172] | 70 | 57 | 108 | 103 |  | 
20 | NC1CCN(CC(O)COc2ccc(Cl)c(Cl)c2)CC1 (centres unmarked) [CU173] | 20 | 30 | 98 | 43 |  | toxic
21 | OC(CNC1CCNCC1)COc1ccc(Cl)c(Cl)c1 (centres unmarked) [CU174] | 40 | 18 | 98 | 97 |  | 
22 | CN1CCC(N(C)CC(O)COc2ccc(Cl)c(Cl)c2)C1 (centres unmarked) [CU175] | 65 | 22 | 108 | 95 |  | 
23 | CNC1CCN(CC(O)COc2ccc(F)c(F)c2)C1 (centres unmarked) [CU176] | 83 | 58 | 102 | 111 |  | 

Row | SMILES | 5 uM Avg Antibacterial Score [1] | 25 uM Avg Antibacterial Score [1] | 5 uM Avg Cell # Score [2] | 25 uM Avg Cell # Score [2] | IC50 [1] [nM] | toxicity to infected macrophages in SAFIRE [2]
24 | CN(CC(O)COc1ccc(Cl)c(Cl)c1)C1CCNCC1 (centres unmarked) [CU177] | 45 | 16 | 101 | 96 |  | 
25 | CN(CC(O)COc1ccc(F)c(F)c1)C1CCNCC1 (centres unmarked) [CU178] | 72 | 51 | 99 | 97 |  | 
26 | OC(COc1ccc(Cl)c(Cl)c1)CN1CCC(n2ccnc2)CC1 (centres unmarked) [CU179] | 36 | 19 | 98 | 91 | 45 | 
27 | OC(COc1ccc(Cl)c(Cl)c1)CN1CCN(C2CCOC2)CC1 (centres unmarked) [CU180] | 106 | 82 | 96 | 100 |  | 
28 | OC(COc1ccc(Cl)c(Cl)c1)CN1CCN(C2COC2)CC1 (centres unmarked) [CU181] | 109 | 94 | 100 | 101 |  | 
29 | OC(COc1ccc(Cl)c(Cl)c1)CN1CCN(C2CC2)CC1 (centres unmarked) [CU182] | 105 | 73 | 102 | 101 |  | 
30 | OC(COc1ccc(Cl)c(Cl)c1)CN1CCN(CC2CC2)CC1 (centres unmarked) [CU183] | 92 | 25 | 103 | 105 |  | 
31 | O=C1CN(CC(O)COc2ccc(Cl)c(Cl)c2)CCN1 (centres unmarked) [CU184] | 103 | 102 | 91 | 97 |  | 
32 | OC(COc1ccc(Cl)c(Cl)c1)CN1CCC(N2CCOCC2)CC1 (centres unmarked) [CU185] | 87 | 76 | 120 | 125 |  | 
33 | OC(COc1cccc2ncccc12)CN1CCC(Nc2nccc(C(F)(F)F)n2)CC1 (centres unmarked) [CU186] | 101 | 9 | 121 | 72 |  | 
34 | NC1CCN(CC(O)COc2cccc(Cl)c2)CC1 (centres unmarked) [CU188] | 33 | 25 | 110 | 111 |  | 
35 | NC1CCN(CC(O)COc2ccccc2Cl)CC1 (centres unmarked) [CU189] | 61 | 49 | 107 | 109 |  | 
36 | NC1CCN(CC(O)COc2ccc(Cl)cc2Cl)CC1 (centres unmarked) [CU190] | 24 | 21 | 101 | 87 |  | 
37 | NC1CCN(CC(O)COc2cc(Cl)cc(Cl)c2)CC1 (centres unmarked) [CU191] | 14 | Toxic | 100 | 15 |  | 
38 | NC1CCN(CC(O)COc2c(Cl)cccc2Cl)CC1 (centres unmarked) [CU192] | 52 | 30 | 96 | 92 | 6.9 | 
39 | N[C@@H]1CCN(CC(O)COc2ccc(Cl)c(Cl)c2)C1 (some centres unmarked) [CU193] | 28 | 14 | 100 | 98 | 11.5 | 
40 | N[C@H]1CCN(CC(O)COc2ccc(Cl)c(Cl)c2)C1 (some centres unmarked) [CU194] | 18 | 12 | 100 | 103 |  | 
41 | O=C1OC(COc2ccc(Cl)c(Cl)c2)CN1c1ccc(N2CCOCC2)cc1 (centres unmarked) [CU195] | 107 | 103 | 114 | 82 |  | 
42 | O=C(O)c1cn(C2CC2)c2cc(N3CCN(CC(O)COc4ccc(Cl)c(Cl)c4)CC3)c(F)cc2c1=O (centres unmarked) [CU196] | 86 | Toxic | 103 | 13 |  | 
43 | N=C(N)NC1CCN(CC(O)COc2ccc(Cl)c(Cl)c2)C1 (centres unmarked) [CU197] | 103 | 87 | 109 | 117 |  | 
44 | OC(CNC1CCNCC1)COc1ccc(Cl)cc1 (centres unmarked) [CU198] | 83 | 34 | 110 | 110 |  | 
45 | OC(CNC1CCNCC1)COc1cccc(Cl)c1 (centres unmarked) [CU199] | 83 | 55 | 105 | 115 |  | 
46 | OC(CNC1CCNCC1)COc1ccccc1Cl (centres unmarked) [CU200] | 92 | 65 | 99 | 108 |  | 
